From patent US7592345B2, “Piperazine and [1,4]diazepan derivatives as NK antagonists” (Hoffmann-La Roche Inc., priority 2007, dated 2009)

Target: T1, recombinant human NK3 receptor (Homo sapiens, UniProt P29371)
T1 construct: expressed in transfected cells; host or cells: HEK293 cells (transient expression), membranes
T1 sequence (P29371 1-465): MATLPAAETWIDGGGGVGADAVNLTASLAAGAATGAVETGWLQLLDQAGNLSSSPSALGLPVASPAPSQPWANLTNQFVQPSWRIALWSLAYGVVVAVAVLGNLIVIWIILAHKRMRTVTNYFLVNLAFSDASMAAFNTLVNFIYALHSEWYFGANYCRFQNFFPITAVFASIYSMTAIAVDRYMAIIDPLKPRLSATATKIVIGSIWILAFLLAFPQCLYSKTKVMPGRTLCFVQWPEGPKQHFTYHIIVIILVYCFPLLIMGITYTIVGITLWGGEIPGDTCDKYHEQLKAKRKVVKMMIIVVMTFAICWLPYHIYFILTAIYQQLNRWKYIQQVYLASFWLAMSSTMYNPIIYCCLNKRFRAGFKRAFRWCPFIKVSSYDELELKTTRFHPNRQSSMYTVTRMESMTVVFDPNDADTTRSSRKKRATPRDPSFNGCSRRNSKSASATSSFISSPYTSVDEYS
Assay: [3H]SR142801 competition binding assay
Conditions: [3H]SR142801, membranes from HEK293 cells transiently expressing recombinant human NK3 receptor; read-out: hNK3 Ki
How it was run: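 Membranes from HEK293 cells transiently expressing human NK3 were incubated 75 min at RT with [3H]SR142801 at its KD and inhibitor (0.0003-10 μM) in Tris-HCl pH 7.4/MnCl2/phosphoramidon/BSA. Nonspecific binding used 10 μM SB222200. Ki from Hill-fitted IC50 via Cheng-Prusoff, duplicate determinations.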

Row | Ki [nM] | Compound
1 | 5.7 | C[C@@H]1CN(CCC(C)(C(=O)NCc2ccc(Cl)c(Cl)c2)c2ccc(Cl)c(Cl)c2)CCN1S(C)(=O)=O (stereo partly drawn) [Example 42, N-(3,4-Dichloro-benzyl)-2-(3,4-dichloro-phenyl)-4-((R)-4-methanesulfonyl-3-methyl-piperazin-1-yl)-2-methyl-butyramide]
2 | 77.4 | Cc1ccc(CN(C)C(=O)C(C)(CCN2CCN(S(C)(=O)=O)CC2)c2ccc(Cl)c(Cl)c2)cc1 (stereo not shown) [Example 22, 2-(3,4-Dichloro-phenyl)-4-(4-methanesulfonyl-piperazin-1-yl)-2,N-dimethyl-N-(4-methyl-benzyl)-butyramide]
3 | 209 | CC(CCN1CCCN(S(C)(=O)=O)CC1)(C(=O)NCc1cc(C(F)(F)F)cc(C(F)(F)F)c1)c1ccc(Cl)c(Cl)c1 (stereo not shown) [Example 107, N-(3,5-Bis-trifluoromethyl-benzyl)-2-(3,4-dichloro-phenyl)-4-(4-methanesulfonyl-[1,4]diazepan-1-yl)-2-methyl-butyramide]
4 | 388 | CN(Cc1cccc(F)c1)C(=O)C(CCN1CCN(S(C)(=O)=O)CC1)c1ccc(Cl)c(Cl)c1 (stereo not shown) [Example 7, 2-(3,4-Dichloro-phenyl)-N-(3-fluoro-benzyl)-4-(4-methanesulfonyl-piperazin-1-yl)-N-methyl-butyramide]
5 | 99.2 | Cc1ccc(CN(C)C(=O)C(C)(CCN2CCN(S(C)(=O)=O)[C@@H](C)C2)c2ccc(Cl)c(Cl)c2)cc1 (stereo partly drawn) [Example 67, 2-(3,4-Dichloro-phenyl)-4-((S)-4-methanesulfonyl-3-methyl-piperazin-1-yl)-2,N-dimethyl-N-(4-methyl-benzyl)-butyramide]
6 | 27.7 | C[C@H]1CN(CCC(C)(C(=O)N(C)Cc2ccc(C(F)(F)F)cc2)c2ccc(Cl)c(Cl)c2)CCN1S(C)(=O)=O (stereo partly drawn) [Example 85, 2-(3,4-Dichloro-phenyl)-4-((S)-4-methanesulfonyl-3-methyl-piperazin-1-yl)-2,N-dimethyl-N-(4-trifluoromethyl-benzyl)-butyramide]
7 | 196 | CC(CCN1CCN(S(C)(=O)=O)CC1)(C(=O)NC(c1ccc(F)cc1)C(F)(F)F)c1ccc(Cl)c(Cl)c1 (stereo not shown) [Example 135, 2-(3,4-Dichloro-phenyl)-4-(4-methanesulfonyl-piperazin-1-yl)-2-methyl-N-[2,2,2-trifluoro-1-(4-fluoro-phenyl)-ethyl]-butyramide]
8 | 39.9 | CC(CCN1CCCN(S(C)(=O)=O)CC1)(C(=O)NCc1ccc(Cl)c(Cl)c1)c1ccc(Cl)c(Cl)c1 (stereo not shown) [Example 114, N-(3,4-Dichloro-benzyl)-2-(3,4-dichloro-phenyl)-4-(4-methanesulfonyl-[1,4]diazepan-1-yl)-2-methyl-butyramide]
9 | 24.5 | CN(Cc1ccc(C(F)(F)F)cc1)C(=O)C(C)(CCN1CCCN(S(C)(=O)=O)CC1)c1ccc(Cl)c(Cl)c1 (stereo not shown) [Example 96, 2-(3,4-Dichloro-phenyl)-4-(4-methanesulfonyl-[1,4]diazepan-1-yl)-2,N-dimethyl-N-(4-trifluoromethyl-benzyl)-butyramide]
10 | 145 | CN(Cc1cccc(Cl)c1)C(=O)C(C)(CCN1CCN(S(C)(=O)=O)CC1)c1ccc(Cl)c(Cl)c1 (stereo not shown) [Example 10, N-(3-Chloro-benzyl)-2-(3,4-dichloro-phenyl)-4-(4-methanesulfonyl-piperazin-1-yl)-2,N-dimethyl-butyramide]
11 | 690 | COc1ccc(CN(C)C(=O)C(CCN2CCN(S(C)(=O)=O)CC2)c2ccc(Cl)c(Cl)c2)cc1F (stereo not shown) [Example 6, 2-(3,4-Dichloro-phenyl)-N-(3-fluoro-4-methoxy-benzyl)-4-(4-methanesulfonyl-piperazin-1-yl)-N-methyl-butyramide]
12 | 13.3 | C[C@@H]1CN(CCC(C)(C(=O)N(C)Cc2ccc(Cl)c(Cl)c2)c2ccc(Cl)c(Cl)c2)CCN1S(C)(=O)=O (stereo partly drawn) [Example 41, N-(3,4-Dichloro-benzyl)-2-(3,4-dichloro-phenyl)-4-((R)-4-methanesulfonyl-3-methyl-piperazin-1-yl)-2,N-dimethyl-butyramide]
13 | 334 | CC(CCN1CCN(S(C)(=O)=O)CC1)(C(=O)N[C@@H](CO)c1ccccc1)c1ccc(Cl)c(Cl)c1 (single isomer, unassigned) [Example 129, (S or R)-2-(3,4-Dichloro-phenyl)-N-((R)-2-hydroxy-1-phenyl-ethyl)-4-(4-methanesulfonyl-piperazin-1-yl)-2-methyl-butyramide]
14 | 133 | CC(CCN1CCN(S(C)(=O)=O)CC1)(C(=O)NCc1ccc(Cl)c(F)c1)c1ccc(Cl)c(Cl)c1 (stereo not shown) [Example 30, N-(4-Chloro-3-fluoro-benzyl)-2-(3,4-dichloro-phenyl)-4-(4-methanesulfonyl-piperazin-1-yl)-2-methyl-butyramide]
15 | 94.2 | C[C@H]1CN(CCC(C)(C(=O)NCc2ccc(Cl)c(F)c2)c2ccc(Cl)c(Cl)c2)CCN1S(C)(=O)=O (stereo partly drawn) [Example 82, N-(4-Chloro-3-fluoro-benzyl)-2-(3,4-dichloro-phenyl)-4-((S)-4-methanesulfonyl-3-methyl-piperazin-1-yl)-2-methyl-butyramide]
16 | 168 | C[C@H]1CN(CCC(C)(C(=O)N(C)Cc2ccccc2Cl)c2ccc(Cl)c(Cl)c2)CCN1S(C)(=O)=O (stereo partly drawn) [Example 79, N-(2-Chloro-benzyl)-2-(3,4-dichloro-phenyl)-4-((S)-4-methanesulfonyl-3-methyl-piperazin-1-yl)-2,N-dimethyl-butyramide]
17 | 17.5 | C[C@@H]1CN(CCC(C)(C(=O)NCc2ccc(Cl)c(C(F)(F)F)c2)c2ccc(Cl)c(Cl)c2)CCN1S(C)(=O)=O (stereo partly drawn) [Example 54, N-(4-Chloro-3-trifluoromethyl-benzyl)-2-(3,4-dichloro-phenyl)-4-((R)-4-methanesulfonyl-3-methyl-piperazin-1-yl)-2-methyl-butyramide]
18 | 43.4 | CC(NC(=O)C(C)(CCN1CCCN(S(C)(=O)=O)CC1)c1ccc(Cl)c(Cl)c1)c1ccc(Cl)c(Cl)c1 (stereo not shown) [Example 122, 2-(3,4-Dichloro-phenyl)-N-[1-(3,4-dichloro-phenyl)-ethyl]-4-(4-methanesulfonyl-[1,4]diazepan-1-yl)-2-methyl-butyramide]
19 | 136 | CN(Cc1ccc(C(F)(F)F)cc1)C(=O)C(CCN1CCN(S(C)(=O)=O)CC1)c1ccc(Cl)c(Cl)c1 (stereo not shown) [Example 5, 2-(3,4-Dichloro-phenyl)-4-(4-methanesulfonyl-piperazin-1-yl)-N-methyl-N-(4-trifluoromethyl-benzyl)-butyramide]
20 | 16.2 | CN(Cc1ccc(C(F)(F)F)c(F)c1)C(=O)C(C)(CCN1CCCN(S(C)(=O)=O)CC1)c1ccc(Cl)c(Cl)c1 (stereo not shown) [Example 112, 2-(3,4-Dichloro-phenyl)-N-(3-fluoro-4-trifluoromethyl-benzyl)-4-(4-methanesulfonyl-[1,4]diazepan-1-yl)-2,N-dimethyl-butyramide]
21 | 52 | C[C@H]1CN(CCC(C)(C(=O)N(C)Cc2cccc(C(F)(F)F)c2)c2ccc(Cl)c(Cl)c2)CCN1S(C)(=O)=O (stereo partly drawn) [Example 87, 2-(3,4-Dichloro-phenyl)-4-((S)-4-methanesulfonyl-3-methyl-piperazin-1-yl)-2,N-dimethyl-N-(3-trifluoromethyl-benzyl)-butyramide]
22 | 18.4 | CN(Cc1cccc(C(F)(F)F)c1)C(=O)C(C)(CCN1CCCN(S(C)(=O)=O)CC1)c1ccc(Cl)c(Cl)c1 (stereo not shown) [Example 101, 2-(3,4-Dichloro-phenyl)-4-(4-methanesulfonyl-[1,4]diazepan-1-yl)-2,N-dimethyl-N-(3-trifluoromethyl-benzyl)-butyramide]
